Experimental data published in patent US11807644B2 (PMV Pharmaceuticals, Inc., priority 2020, dated 2023).

Target: T1, recombinant His-tag Y220C p53 DBD protein (Homo sapiens, UniProt P04637, Y220C)
T1 construct: recombinant His-tag Y220C p53 DBD protein (amino acids #˜94-312)
Assay: In vitro DNA binding activity assay (TR-FRET): binding of His-tag Y220C p53 DBD to biotin-labeled consensus DNA
Type: biochemical
Conditions: SC150 = concentration to increase DNA binding by […], His-tag Y220C p53 DBD, biotin-labeled consensus DNA

SMILES	Y220C SC150 (μM)
CCN1CC[C@@H](Nc2cccc3c2cc(-c2noc(CNC(=O)c4cnn(C(C)(C)C)c4)n2)n3CC(F)(F)F)[C@@H](F)C1 [Compound 304B, 1-tert-butyl-N-{[3-(4-{[(3S,4R)-1-ethyl-3-fluoropiperidin-4-yl]amino}-1-(2,2,2-trifluoroethyl)-1H-indol-2-yl)-1,2,4-oxadiazol-5-yl]methyl}-1H-pyrazole-4-carboxamide]	* (* = 0 μM ≤ SC150 < 0.1 μM)
F[C@H]1CNCC[C@H]1Nc1cccc2c1cc(-c1noc(CNc3ccn[nH]3)n1)n2CC(F)(F)F [Compound 214B, N-[(3S,4R)-3-fluoropiperidin-4-yl]-2-(5-{[(1H-pyrazol-5-yl)amino]methyl}-1,2,4-oxadiazol-3-yl)-1-(2,2,2-trifluoroethyl)-1H-indol-4-amine]	* (* = 0 μM ≤ SC150 < 0.1 μM)
CN1CC[C@@H](Nc2cccc3c2cc(-c2noc(CNC(=O)c4ccn(C(C)(C)C)c4)n2)n3CC(F)(F)F)[C@@H](F)C1 (racemic) [Compound 184B, (+/−)-tert-butyl-N-{[3-(4-{[(3R,4S)-3-fluoro-1-methylpiperidin-4-yl]amino}-1-(2,2,2-trifluoroethyl)-1H-indol-2-yl)-1,2,4-oxadiazol-5-yl]methyl}-1H-pyrrole-3-carboxamide]	* (* = 0 μM ≤ SC150 < 0.1 μM)
CC(C)(C)n1ccc(C(=O)NCc2nc(-c3cc4c(NC5CCC(F)(F)CC5)cccc4n3CC(F)(F)F)no2)c1 [Compound 328B, 1-tert-butyl-N-[(3-{4-[(4,4-difluorocyclohexyl)amino]-1-(2,2,2-trifluoroethyl)-1H-indol-2-yl}-1,2,4-oxadiazol-5-yl)methyl]-1H-pyrrole-3-carboxamide]	* (* = 0 μM ≤ SC150 < 0.1 μM)
CN1CC[C@@H](Nc2cccc3c2cc(-c2noc(CNC(=O)c4cccs4)n2)n3CC(F)(F)F)[C@@H](F)C1 (racemic) [Compound 175B, (+/−)-N-{[3-(4-{[(3R,4S)-3-fluoro-1-methylpiperidin-4-yl]amino}-1-(2,2,2-trifluoroethyl)-1H-indol-2-yl)-1,2,4-oxadiazol-5-yl]methyl}thiophene-2-carboxamide]	* (* = 0 μM ≤ SC150 < 0.1 μM)
CN1CC[C@@H](F)[C@@H](Nc2cccc3c2cc(-c2noc(CNC(=O)c4cnn(C(C)(C)C)c4)n2)n3CC(F)(F)F)C1 [Compound 409B, Tert-butyl-N-[[3-[4-[[(3S,4R)-4-fluoro-1-methyl-3-piperidyl]amino]-1-(2,2,2-trifluoroethyl)indol-2-yl]-1,2,4-oxadiazol-5-yl]methyl]pyrazole-4-carboxamide]	* (* = 0 μM ≤ SC150 < 0.1 μM)
CN1CC[C@@H](Nc2cccc3c2cc(-c2noc(CNC(=O)[C@H]4C[C@@H](C)C4)n2)n3CC(F)(F)F)[C@@H](F)C1 [Compound 223B, (1r,3s)-N-{[3-(4-{[(3S,4R)-3-fluoro-1-methylpiperidin-4-yl]amino}-1-(2,2,2-trifluoroethyl)-1H-indol-2-yl)-1,2,4-oxadiazol-5-yl]methyl}-3-methylcyclobutane-1-carboxamide]	* (* = 0 μM ≤ SC150 < 0.1 μM)
CN1CC[C@@H](Nc2cccc3c2cc(-c2noc(CNC(=O)c4csc(N5CCCC5)n4)n2)n3CC(F)(F)F)[C@@H](F)C1 [Compound 460B, N-{[3-(4-{[(3S,4R)-3-fluoro-1-methylpiperidin-4-yl]amino}-1-(2,2,2-trifluoroethyl)-1H-indol-2-yl)-1,2,4-oxadiazol-5-yl]methyl}-2-(pyrrolidin-1-yl)-1,3-thiazole-4-carboxamide]	* (* = 0 μM ≤ SC150 < 0.1 μM)
COCC1(n2ccc(C(=O)NCc3nc(-c4cc5c(N[C@H]6CCN(C)C[C@H]6C)cccc5n4CC(F)(F)F)no3)c2)CC1 [Compound 505B, N-{[3-(4-{[(3R,4S)-1,3-dimethylpiperidin-4-yl]amino}-1-(2,2,2-trifluoroethyl)-1H-indol-2-yl)-1,2,4-oxadiazol-5-yl]methyl}-1-[1-(methoxymethyl)cyclopropyl]-1H-pyrrole-3-carboxamide]	* (* = 0 μM ≤ SC150 < 0.1 μM)
CN1CCC(Nc2cccc3c2cc(-c2nnc(CNC(=O)c4cn[nH]c4)s2)n3CC(F)(F)F)CC1 [Compound 72B, N-[(5-{4-[(1-methylpiperidin-4-yl)amino]-1-(2,2,2-trifluoroethyl)-1H-indol-2-yl}-1,3,4-thiadiazol-2-yl)methyl]-1H-pyrazole-4-carboxamide]	* (* = 0 μM ≤ SC150 < 0.1 μM)
CN1CC[C@H](Nc2cccc3c2cc(-c2nnc(CNC(=O)c4cccs4)s2)n3CC(F)(F)F)[C@H](F)C1 (racemic) [Compound 30B, (+/−)-N-{[5-(4-{[(3R,4S)-3-fluoro-1-methylpiperidin-4-yl]amino}-1-(2,2,2-trifluoroethyl)-1H-indol-2-yl)-1,3,4-thiadiazol-2-yl]methyl}thiophene-2-carboxamide]	* (* = 0 μM ≤ SC150 < 0.1 μM)
COC(C)(C)c1cc(C(=O)NCc2nc(-c3cc4c(N[C@H]5CCNC[C@H]5F)cccc4n3CC(F)(F)F)no2)cs1 [Compound 490B, N-{[3-(4-{[(3R,4S)-3-fluoropiperidin-4-yl]amino}-1-(2,2,2-trifluoroethyl)-1H-indol-2-yl)-1,2,4-oxadiazol-5-yl]methyl}-5-(2-methoxypropan-2-yl)thiophene-3-carboxamide]	* (* = 0 μM ≤ SC150 < 0.1 μM)
CN1CCC(Nc2cccc3c2cc(-c2nnc(CNC(=O)C4CC4)o2)n3CC(F)(F)F)CC1 [Compound 110B, N-[(5-{4-[(1-methylpiperidin-4-yl)amino]-1-(2,2,2-trifluoroethyl)-1H-indol-2-yl}-1,3,4-oxadiazol-2-yl)methyl]cyclopropanecarboxamide]	*** (*** = 0.5 μM ≤ SC150 < 1 μM)
CC(C)(C)n1ccc(C(=O)NCc2nc(-c3cc4c(N[C@@H]5CCOC[C@@H]5F)cccc4n3CC(F)(F)F)no2)c1 [Compound 493B, 1-tert-butyl-N-{[3-(4-{[(3R,4R)-3-fluorooxan-4-yl]amino}-1-(2,2,2-trifluoroethyl)-1H-indol-2-yl)-1,2,4-oxadiazol-5-yl]methyl}-1H-pyrrole-3-carboxamide]	* (* = 0 μM ≤ SC150 < 0.1 μM)
CC(C)(C)N1CCC(Nc2cccc3c2cc(-c2noc(CNC(=O)c4cnn(C(C)(C)C)c4)n2)n3CC(F)(F)F)[C@@H](F)C1 (stereo in doubt) [Compound 400B, 1-tert-butyl-N-{[3-(4-{[(3S,4R)-1-tert-butyl-3-fluoropiperidin-4-yl]amino}-1-(2,2,2-trifluoroethyl)-1H-indol-2-yl)-1,2,4-oxadiazol-5-yl]methyl}-1H-pyrazole-4-carboxamide]	* (* = 0 μM ≤ SC150 < 0.1 μM)
CN1CC[C@@H](Nc2cccc3c2cc(-c2noc(CNC(=O)c4cccn4CCF)n2)n3CC(F)(F)F)[C@@H](F)C1 [Compound 540B, N-{[3-(4-{[(3S,4R)-3-fluoro-1-methylpiperidin-4-yl]amino}-1-(2,2,2-trifluoroethyl)-1H-indol-2-yl)-1,2,4-oxadiazol-5-yl]methyl}-1-(2-fluoroethyl)-1H-pyrrole-2-carboxamide]	* (* = 0 μM ≤ SC150 < 0.1 μM)
CO[C@@H]1CCN(c2nc(C(=O)NCc3nc(-c4cc5c(N[C@@H]6CCN(C)C[C@@H]6F)cccc5n4CC(F)(F)F)no3)cs2)C1 [Compound 522B, N-{[3-(4-{[(3S,4R)-3-fluoro-1-methylpiperidin-4-yl]amino}-1-(2,2,2-trifluoroethyl)-1H-indol-2-yl)-1,2,4-oxadiazol-5-yl]methyl}-2-[(3R)-3-methoxypyrrolidin-1-yl]-1,3-thiazole-4-carboxamide]	* (* = 0 μM ≤ SC150 < 0.1 μM)
C[C@@H]1CN(C)CC[C@@H]1Nc1cccc2c1cc(-c1noc(CNC(=O)c3ccc(C(C)(C)O)s3)n1)n2CC(F)(F)F (stereo in doubt) [Compound 515B, N-{[3-(4-{[(3R,4S)-1,3-dimethylpiperidin-4-yl]amino}-1-(2,2,2-trifluoroethyl)-1H-indol-2-yl)-1,2,4-oxadiazol-5-yl]methyl)-5-(2-hydroxypropan-2-yl)thiophene-2-carboxamide]	* (* = 0 μM ≤ SC150 < 0.1 μM)
CN1CC[C@@H](Nc2cccc3c2cc(-c2noc(CNC(=O)c4cccc(N5CCOCC5)c4)n2)n3CC(F)(F)F)[C@@H](F)C1 [Compound 262B, N-{[3-(4-{[(3S,4R)-3-fluoro-1-methylpiperidin-4-yl]amino}-1-(2,2,2-trifluoroethyl)-1H-indol-2-yl)-1,2,4-oxadiazol-5-yl]methyl}-3-(morpholin-4-yl)benzamide]	* (* = 0 μM ≤ SC150 < 0.1 μM)
CNc1cc(-c2cc3c(NC4CCN(C)CC4)cccc3n2CC(F)(F)F)n[nH]1 [Compound 23B, 2-[5-(methylamino)-1H-pyrazol-3-yl]-N-(1-methylpiperidin-4-yl)-1-(2,2,2-trifluoroethyl)-1H-indol-4-amine]	**** (**** = 1 μM ≤ SC150 < 10 μM)
CN1CCC(Nc2cccc3c2cc(-c2nnc(CNC4CCNC4)s2)n3CC(F)(F)F)CC1 (stereo not shown) [Compound 80B, N-(1-methylpiperidin-4-yl)-2-(5-{[(pyrrolidin-3-yl)amino]methyl}-1,3,4-thiadiazol-2-yl)-1-(2,2,2-trifluoroethyl)-1H-indol-4-amine]	**** (**** = 1 μM ≤ SC150 < 10 μM)
Cc1cscc1C(=O)NCc1nc(-c2cc3c(N[C@@H]4CCN(C)C[C@@H]4F)cccc3n2CC(F)(F)F)no1 [Compound 209B, N-{[3-(4-{[(3S,4R)-3-fluoro-1-methylpiperidin-4-yl]amino}-1-(2,2,2-trifluoroethyl)-1H-indol-2-yl)-1,2,4-oxadiazol-5-yl]methyl}-4-methylthiophene-3-carboxamide]	* (* = 0 μM ≤ SC150 < 0.1 μM)
